# Reference: patent US10179927B2, “Electrochemical detection of microorganisms” (priority 2014, dated 2019)
# Read-outs that look alike come from different tables or passages of the source. Marks after values point to notes of the source that are not given here.
# Experiments:
# E. coli [1] = test: Current from unconjugated redox active reporter moieties with E. coli in self-powering bioelectrochemical systems (BES, microbial fuel cells); format: cell-based, Escherichia coli; settings: 1 kΩ load, ambient temperature
# Experimental: Resorufin (TCI-Europe), 2-hydroxy-1,4-naphthoquinone (2H14NQ) (TCI-Europe), 5-hydroxy-1,4-naphthoquinone (5H14NQ) (TCI-Europe) and 5,8-dihydroxy-1,4-naphthoquinone (58H14NQ) (Sigma-Aldrich) were obtained commercially and added to M9 medium in their unconjugated form to achieve a working concentration of 50 μM. Resorufin glycoconjugates (resorufin-β-d-galactopyranoside and resorufin-β-d-glucopyranoside) were obtained commercially (Sigma-Aldrich), whereas 2-hydroxy-1,4-naphthoquinone-β-d-galactopyranoside (2H14NQGal) and 2-hydroxy-1,4-naphthoquinone-β-d-glucopyranoside (2H14NQG1u) were specifically synthesized by Sussex Research Ltd. All reporters were added to a final concentration of 50 μM. Stock concentrations (1.0×10^−3 M) of 2H14NQ and 5H14NQ were prepared by first dissolving in 10 μL of 2 M NaOH and then making up to volume in Type II water (Veolia) whereas 58H14NQ (1.0×10^−3 M) was prepared in 1:1 DMSO:Type II water aliquots. Both stock solutions were stored at −20° C. until needed. Conjugated reporters were maintained as 1 mM stock solutions in Type II water and stored at 5° C. […]
# Dual chamber U-tube BESs, in the form of microbial fuel cells (MFCs), were constructed with two 90° 28/15 ball-to-plain-end and socket-to-plain-end glass quick fit elbows (17 mm O.D.×1.8 mm wall thickness) (VWR, Singapore) to form the anode and cathode chambers (Sund et al., Appl. Microbiol. Biotechnol. 2007; 76:561-568.). […] A 1 kΩ load was applied across the circuit and potential difference was recorded using an eDAQ e-corder® data acquisition system (ED 1621-16 channel recorder) equipped with Chart™ software (Bronjo Medi, Singapore) at a rate of 1 data point every 5 min. […]
# Naphthoquinones are cheap redox active molecules which are compatible with E. coli and can be readily conjugated to pyranose rings (Rau et al. Environ. Sci. Technol. 2002; 36:1497-1504; Park and Zeikus. Appl. Environ. Microbiol. 2000; 66:1292-1297). […]
# E. coli [2] = test: Current from unconjugated redox active reporter moieties mediating electron transfer between E. coli and the electrode in ECs; format: cell-based, Escherichia coli; settings: 5×10^5 CFU mL^−1 of E. coli; for Maximum recorded current in ECs: unconjugated reporter 50 μM
# Experimental: (§1) Resorufin (TCI-Europe), 2-hydroxy-1,4-naphthoquinone (2H14NQ) (TCI-Europe), 5-hydroxy-1,4-naphthoquinone (5H14NQ) (TCI-Europe) and 5,8-dihydroxy-1,4-naphthoquinone (58H14NQ) (Sigma-Aldrich) were obtained commercially and added to M9 medium in their unconjugated form to achieve a working concentration of 50 μM. Resorufin glycoconjugates (resorufin-β-d-galactopyranoside and resorufin-β-d-glucopyranoside) were obtained commercially (Sigma-Aldrich), whereas 2-hydroxy-1,4-naphthoquinone-β-d-galactopyranoside (2H14NQGal) and 2-hydroxy-1,4-naphthoquinone-β-d-glucopyranoside (2H14NQG1u) were specifically synthesized by Sussex Research Ltd. All reporters were added to a final concentration of 50 μM. Stock concentrations (1.0×10^−3 M) of 2H14NQ and 5H14NQ were prepared by first dissolving in 10 μL of 2 M NaOH and then making up to volume in Type II water (Veolia) whereas 58H14NQ (1.0×10^−3 M) was prepared in 1:1 DMSO:Type II water aliquots. Both stock solutions were stored at −20° C. until needed. Conjugated reporters were maintained as 1 mM stock solutions in Type II water and stored at 5° C.
# (§2) Escherichia coli strain BL21 was selected to represent a FIB of human origin that contains the uidA and lacZ genes, i.e. a FC, whereas Aeromonas hydrophila (DSM 6173) is an environmental organism that has the lacZ gene but which is not considered a coliform. All organisms were cultured aerobically for 20 h. E. coli was grown in Luria Bertani (Lennox) medium at 37° C., and A. hydrophile at 30° C. in tryptone soy broth (TSB) in a shaking incubator.
# (§3) The resulting overnight cultures were diluted in sterile modified M9 medium (Na2HPO4.7H2O (126 mM); KH2PO4 (110 mM); NH4Cl (93 mM); NaCl (42 mM); 1 mL/L vitamin stock solution; tryptone 12.5 g/L; HEPES: 6 g/L; and macro nutrients). The carbon source was either D-galacturonic acid or D-glucuronic acid (3.75 g/L) to achieve a final inoculum density in the range of 1.0×10^0, 5.0×10^0, 5.0×10^1, 5.0×10^2, 5.0×10^3, 5.0×10^4, and 5.0×10^5 CFU mL^−1 in both electrochemical system and the bioelectrochemical system.
# Conical ECs with a working volume of 10 mL were used with a customized Teflon cap to accommodate a three electrode configuration along with gas fittings to maintain a moist anaerobic atmosphere. Carbon felt working electrodes (1×1×0.318 cm) (VWR, Singapore) were kept for 24 h in 1 M HCl and stored in deionized (DI) water before use. The electrodes were connected to titanium wire (0.25 mmØ, Sigma-Aldrich) using a nylon nut and bolt. A coiled titanium wire was used as counter electrode and an Ag/AgCl reference electrode (78 mm, 6 mm Outer Ø, Biologic, France) was connected using a 1 M KCl in 1.5% agar salt bridge. The assembled cell was then filled with 1 M KCl solution ending in a 4 mm glass frit (CoralPor™, Biologic, France). The entire assembly was then autoclaved (121° C. for 15 min). Nine mL of degassed modified M9 medium was added to the ECs and supplemented with a reporter to a final concentration of 5.0×10^−5 M in 10 mL working volume. […]
# (§4) Following reporter supplement and inoculation with the test microorganism, the ECs were connected to a multichannel potentiostat (Biologic, France) and cyclic voltammetry (CV) and differential pulse voltammetry (DPV) were performed immediately. Data acquisition was recorded by EC-Lab software (Biologic, France). […] A detection event was calculated as 4 times the standard deviation of the baseline and detection times are expressed as the mean of triplicate analyses unless stated otherwise. […]
# [3] = test system: Escherichia coli strain BL21; test: Chronoamperometric detection of E. coli with electrochemically active reporters in three-electrode electrochemical systems (ECs); format: cell-based; settings: for Detection time (±std dev): chronoamperometry in ECs, reporter 50 μM; for Detection time for E. coli: inoculum sizes between 5×10^5-5×10^3, ECs (Table 1)
# Experimental: as §1, §2, §3
# Conical ECs with a working volume of 10 mL were used with a customized Teflon cap to accommodate a three electrode configuration along with gas fittings to maintain a moist anaerobic atmosphere. Carbon felt working electrodes (1×1×0.318 cm) (VWR, Singapore) were kept for 24 h in 1 M HCl and stored in deionized (DI) water before use. The electrodes were connected to titanium wire (0.25 mmØ, Sigma-Aldrich) using a nylon nut and bolt. A coiled titanium wire was used as counter electrode and an Ag/AgCl reference electrode (78 mm, 6 mm Outer Ø, Biologic, France) was connected using a 1 M KCl in 1.5% agar salt bridge. The assembled cell was then filled with 1 M KCl solution ending in a 4 mm glass frit (CoralPor™, Biologic, France). The entire assembly was then autoclaved (121° C. for 15 min). Nine mL of degassed modified M9 medium was added to the ECs and supplemented with a reporter to a final concentration of 5.0×10^−5 M in 10 mL working volume. The ECs were then inoculated with the targeted test organism to achieve a final working volume of 10 mL. The headspace was flushed continuously with sterile humidified N2. The ECs were operated at 30° C., 37° C. or 44.5° C. Stirring was maintained continuously with a magnetic stirrer in the dark to prevent photo-bleaching of the light sensitive mediators.
# Following reporter supplement and inoculation with the test microorganism, the ECs were connected to a multichannel potentiostat (Biologic, France) and cyclic voltammetry (CV) and differential pulse voltammetry (DPV) were performed immediately. Data acquisition was recorded by EC-Lab software (Biologic, France). Chronoamperometry (CA) was applied for up to 24 h to detect redox active reporter moieties. A detection event was calculated as 4 times the standard deviation of the baseline and detection times are expressed as the mean of triplicate analyses unless stated otherwise. […]
# Escherichia coli = test: Suitability of colorimetric detection compounds for bioelectrochemical detection of Escherichia coli; format: cell-based; settings: compound used for colorimetric detection of Escherichia coli
# From the text: Bioelectroanalytical techniques are emerging as ways to enumerate and scrutinize microbial systems. But there is still need in the art for technologies specifically designed for bioelectroanalytical detection of FIB. […] The latter, in particular, makes them unsuitable in self-powering systems.
# [4] = test system: mixed culture of E. coli and A. hydrophila; test: Detection time of mixed culture of A. hydrophila and E. coli in ECs; format: cell-based, Escherichia coli; Aeromonas hydrophila; settings: 44.5° C.; E. coli constant 5×10^5 CFU mL^−1; A. hydrophila from 5×10^2-5×10^5 CFU mL^−1 (FIG. 6)
# Experimental: as §2, §3
# Conical ECs with a working volume of 10 mL were used with a customized Teflon cap to accommodate a three electrode configuration along with gas fittings to maintain a moist anaerobic atmosphere. Carbon felt working electrodes (1×1×0.318 cm) (VWR, Singapore) were kept for 24 h in 1 M HCl and stored in deionized (DI) water before use. The electrodes were connected to titanium wire (0.25 mmØ, Sigma-Aldrich) using a nylon nut and bolt. A coiled titanium wire was used as counter electrode and an Ag/AgCl reference electrode (78 mm, 6 mm Outer Ø, Biologic, France) was connected using a 1 M KCl in 1.5% agar salt bridge. […]
# as §4
# E. coli [5] = settings: Perez et al., cited from earlier work
# [6] = 37° C., inoculum 5 × 10^2 CFU mL^−1
# [7] = 37° C., inoculum 5 × 10^3 CFU mL^−1
# [8] = 37° C., inoculum 5 × 10^4 CFU mL^−1
# [9] = 37° C., inoculum 5 × 10^5 CFU mL^−1
Structure (SMILES),Current observed in BES (E. coli [1]),Maximum recorded current in ECs (E. coli [2]),"Detection time (±std dev) [3, 6]","Detection time (±std dev) [3, 7]","Detection time (±std dev) [3, 8]","Detection time (±std dev) [3, 9]",Suitability for bioelectrochemical detection (Escherichia coli),other results
"O=C1C=C(O)C(=O)c2ccccc21 [2H14NQ, 2-hydroxy-1,4-naphthoquinone]",40 μA,~100 μA,–,–,–,–,–,Maximum current relative to that achieved with 5H14NQ (E. coli [2]; ECs): ~14 times; Maximum current relative to that observed with 58H14NQ (E. coli [2]; ECs): ~25 times
"O=C1C=CC(=O)c2c(O)cccc21 [5H14NQ, 5-hydroxy-1,4-naphthoquinone]",6 μA,~7 μA,–,–,–,–,–,–
"O=c1ccc2nc3ccc(O[C@@H]4O[C@H](CO)[C@@H](O)[C@H](O)[C@H]4O)cc3oc-2c1 [ResGlu, resorufin-β-d-glucopyranoside]",–,–,431(±29) minutes,397(±52) minutes,309(±33) minutes,259(±19) minutes,–,"Detection time ([3]; inoculum size 5×10^3 CFU mL^−1, ECs): 6.6 h; Detection time for E. coli [3]: 258 to 397 min"
"O=C1C=C(O[C@@H]2O[C@H](CO)[C@H](O)[C@H](O)[C@H]2O)C(=O)c2ccccc21 [2H14NQGal, 2-hydroxy-1,4-naphthoquinone-β-d-galactopyranoside]",–,–,413(±14) minutes,359(±13) minutes,143(±17) minutes,113(±13) minutes,–,"Detection time ([3]; inoculum equivalent to 5×10^3 CFU mL^−1 of Perez et al., n=3): 6.87 h"
"O=C(O)[C@H]1O[C@@H](Oc2ccc([N+](=O)[O-])cc2)[C@H](O)[C@@H](O)[C@@H]1O [4-NPglu, 4-nitrophenol-β-d-glucuronidase]",–,–,–,–,–,–,not well suited for bioelectrochemical detection,–
"O=C1C=CC(=O)c2c(O)ccc(O)c21 [58H14NQ, 5,8-dihydroxy-1,4-naphthoquinone]",2.5 μA,~4 μA,–,–,–,–,–,–
O=C(O)[C@H]1O[C@@H](Oc2cccc3cccnc23)[C@H](O)[C@@H](O)[C@@H]1O [8-hydroxyquinoline glucuronide],–,–,–,–,–,–,not well suited for bioelectrochemical detection,–
"O=C1C=C(O[C@@H]2O[C@H](CO)[C@@H](O)[C@H](O)[C@H]2O)C(=O)c2ccccc21 [2H14NQGlu, 2-hydroxy-1,4-naphthoquinone-β-d-glucopyranoside]",–,–,339(±41) minutes,187(±31) minutes,142(±11) minutes,120(±21) minutes,–,"Detection time (±std dev) ([3]; 30° C., inoculum 5 × 10^2 CFU mL^−1): 832* minutes; Detection time (±std dev) ([3]; 30° C., inoculum 5 × 10^3 CFU mL^−1): 574* minutes; Detection time (±std dev) ([3]; 30° C., inoculum 5 × 10^5 CFU mL^−1): 168* minutes; Detection time ([3]; 44.5° C., 10 organism, FIG. 7): 19 h; Detection time ([3]; 44.5° C., 500 organisms, FIG. 7): 12.5 h; Detection time ([3]; 44.5° C., 5000 organisms, FIG. 7): ~9 h; Detection time ([3]; 44.5° C., ""CFU mL^−1 of E. coli"" (number not given), FIG. 7): ~19 h; Detection time ([3]; 44.5° C., inoculum size 500 CFU mL^−1, FIG. 7): less than 10 h; Detection time for E. coli [3]: 120 to 188 min; Detection time, mixed culture [4]: 125 to 172 min"
"Nc1ccc(O[C@@H]2O[C@H](CO)[C@H](O)[C@H](O)[C@H]2O)cc1 [4-APgal, 4-aminophenyl-β-d-galactopyranoside]",–,–,–,–,–,–,not well suited for bioelectrochemical detection,Detection time (E. coli [5]; 1 CFU mL^−1 (laboratory sample)): 10 h; Detection time (E. coli [5]; 4.5 CFU mL^−1 (marine sample)): 7.3 h
